Data reported in US7109339B2, “Substituted tricyclic gamma-carbolines as serotonin receptor agonists and antagonists” (Bristol-Myers Squibb Company, priority 2002, dated 2006).

Compound `COc1cc2c(c(C(F)(F)F)c1)N[C@H]1CCNC[C@@H]21` has a melting point of 140 to 144 °C.
Work on `CC(C)(C)OC(=O)N1CC[C@H]2[C@@H](C1)c1cc(Br)cc(C#N)c1N2C(=O)OC(C)(C)C` yielded a melting point of 74 to 78 °C.
Compound `COc1ncc(C)cc1Nc1cc(C#N)c2c(c1)[C@@H]1CNCC[C@@H]1N2C` [Example 169, (4aS,9bR)-8-(2-methoxy-5-methyl-pyridin-3-ylamino)-5-methyl-2,3,4,4a,5,9b-hexahydro-1H-pyrido[4,3-b]indole-6-carbonitrile] has a melting point of 76 to 80 °C.
